Earlier results, collected in patent US20030180282A1, “Method of treatment of thrombotic events” (priority 2002, published 2003).
Residues, ends and D or L forms follow the SMILES beside them.

Key:
[1] = coadministration with thrombolytic therapy

For `CC(=O)Oc1ccccc1C(=O)O` [aspirin], the “effect on reocclusion and recurrent ischemia” value [1] is given as “approximate halving of frequency”.

In the case of `N=C(N)NCCCC[C@@H]1NC(=O)CCSSC[C@@H](C(N)=O)NC(=O)[C@@H]2CCCN2C(=O)[C@H](Cc2c[nH]c3ccccc23)NC(=O)[C@H](CC(=O)O)NC(=O)CNC1=O` [eptifibatide] (HELM PEPTIDE1{[O=C(CCS[*:3])[*:2]].[N=C(N)NCCCC[C@H](N[*:1])C(=O)[*:2]].G.D.W.P.C.[am]}$PEPTIDE1,PEPTIDE1,1:R3-7:R3$$$V2.0), the “incidence of death and reinfarction” value (IMPACT-AMI, all patients randomized, placebo 7.3%) is given as 8.0% and the major hemorrhage (in vivo) is given as 7.1%.
